What was measured:
Settings in all cases: 72 h
Calu-3 [1] = assay: cell viability relative to DMSO; higher = less toxic
U2OS [2] = assay: as above
Vero E6 [3] = assay: as above
Calu-3 [4] = assay: relative viability EC50 (midpoint between 100% and the lowest measured viability); higher = less toxic
U2OS [5] = assay: as above
Vero E6 [6] = assay: as above
Calu-3 [7] = assay: drug sensitivity score (DSS) for viability; higher = more toxic; extreme values may be limits of the assay
U2OS [8] = assay: as above
Vero E6 [9] = assay: as above
Caco-2 [10] = assay: cell viability relative to DMSO; higher = less toxic
HepG2 [11] = assay: as above
Caco-2 [12] = assay: relative viability EC50 (midpoint between 100% and the lowest measured viability); higher = less toxic
HepG2 [13] = assay: as above
Caco-2 [14] = assay: drug sensitivity score (DSS) for viability; higher = more toxic; extreme values may be limits of the assay
HepG2 [15] = assay: as above

Row | SMILES | cell viability (Calu-3 [1]; 1 nM) | cell viability (Calu-3 [1]; 10 nM) | cell viability (Calu-3 [1]; 100 nM) | cell viability (Calu-3 [1]; 1000 nM) | cell viability (Calu-3 [1]; 10000 nM) | cell viability (U2OS [2]; 1 nM) | cell viability (U2OS [2]; 10 nM) | cell viability (U2OS [2]; 100 nM) | cell viability (U2OS [2]; 1000 nM) | cell viability (U2OS [2]; 10000 nM) | cell viability (Vero E6 [3]; 1 nM) | cell viability (Vero E6 [3]; 10 nM) | cell viability (Vero E6 [3]; 100 nM) | cell viability (Vero E6 [3]; 1000 nM) | cell viability (Vero E6 [3]; 10000 nM) | relative viability EC50 (Calu-3 [4]) | relative viability EC50 (U2OS [5]) | relative viability EC50 (Vero E6 [6]) | drug sensitivity score (Calu-3 [7]) | drug sensitivity score (U2OS [8]) | drug sensitivity score (Vero E6 [9]) | cell viability (Caco-2 [10]; 1 nM) | cell viability (Caco-2 [10]; 10 nM) | cell viability (Caco-2 [10]; 100 nM) | cell viability (Caco-2 [10]; 1000 nM) | cell viability (Caco-2 [10]; 10000 nM) | cell viability (HepG2 [11]; 1 nM) | cell viability (HepG2 [11]; 10 nM) | cell viability (HepG2 [11]; 100 nM) | cell viability (HepG2 [11]; 1000 nM) | cell viability (HepG2 [11]; 10000 nM) | relative viability EC50 (Caco-2 [12]) | relative viability EC50 (HepG2 [13]) | drug sensitivity score (Caco-2 [14]) | drug sensitivity score (HepG2 [15])
1 | Cn1c(=O)c2[nH]cnc2n(C)c1=O [aminophylline] | 99.2% | 114% | 100% | 108% | 114% | 99.1% | 98.9% | 94.9% | 101% | 103% | 99.5% | 100% | 94.9% | 93.1% | 112% | > 10 µM | > 10 µM | > 10 µM | 0 | 0 | 0 |  |  |  |  |  |  |  |  |  |  |  |  |  | 
2 | CCS(=O)(=O)N1CC(CC#N)(n2cc(-c3ncnc4[nH]ccc34)cn2)C1 [baricitinib] |  |  |  |  |  | 95.4% | 98.5% | 95.1% | 94.4% | 96.4% | 98.6% | 100% | 102% | 102% | 101% |  | > 10 µM | > 10 µM |  | 0 | 0 | 95.6% | 102% | 92.9% | 97% | 99.7% | 98.6% | 106% | 91.1% | 107% | 90.3% | > 10 µM | > 10 µM | 0 | 0
3 | CC(=O)N[C@H](Cc1ccc2ccccc2c1)C(=O)N[C@H](Cc1ccc(Cl)cc1)C(=O)N[C@H](Cc1cccnc1)C(=O)N[C@@H](CO)C(=O)N[C@@H](Cc1ccc(O)cc1)C(=O)N[C@H](CCCNC(N)=O)C(=O)N[C@@H](CC(C)C)C(=O)N[C@@H](CCCNC(=N)N)C(=O)N1CCC[C@H]1C(=O)N[C@H](C)C(N)=O [cetrorelix] |  |  |  |  |  | 102% | 93.6% | 96.9% | 95.1% | 100% | 105% | 101% | 105% | 99.3% | 90.3% |  | > 10 µM | > 10 µM |  | 0 | 0 | 117% | 95.5% | 110% | 114% | 104% | 102% | 93.7% | 101% | 97.8% | 83.1% | > 10 µM | > 10 µM | 0 | 0.6
4 | O=C(O)/C=C(/CC(=O)O)C(=O)O [cis-aconitic-acid] |  |  |  |  |  | 98.3% | 99.1% | 101% | 96.7% | 103% | 99% | 103% | 94.9% | 97.8% | 109% |  | > 10 µM | > 10 µM |  | 0 | 0 | 88.4% | 97.1% | 98.6% | 90% | 93.4% | 105% | 105% | 91.6% | 113% | 98.9% | > 10 µM | > 10 µM | 0 | 0
5 | CC(C)NCC(O)c1ccccc1Cl (configuration not stated) [clorprenaline] |  |  |  |  |  | 94% | 103% | 95.6% | 102% | 103% | 99.8% | 95% | 99.8% | 99.6% | 106% |  | > 10 µM | > 10 µM |  | 0 | 0 | 99.7% | 104% | 94.7% | 93.7% | 102% | 101% | 102% | 93.4% | 97.3% | 113% | > 10 µM | > 10 µM | 0 | 0
6 | N=C(Nc1ccccc1)Nc1ccccc1 [diphenylguanidine] |  |  |  |  |  | 98.4% | 98% | 95.3% | 100% | 106% | 100% | 95.1% | 103% | 91.8% | 104% |  | > 10 µM | > 10 µM |  | 0 | 0 | 92.4% | 93.5% | 91.5% | 94.2% | 107% | 117% | 92.6% | 103% | 101% | 101% | > 10 µM | > 10 µM | 0 | 0
7 | CCCCCCOc1ccccc1C(N)=O [exalamide] | 106% | 115% | 107% | 98.3% | 113% | 95.6% | 92.7% | 101% | 93.1% | 94.3% | 110% | 105% | 102% | 105% | 86.9% | > 10 µM | > 10 µM | > 10 µM | 0 | 0 | 0 |  |  |  |  |  | 110% | 96.1% | 95.9% | 109% | 90% |  | > 10 µM |  | 0
8 | NCC1(CC(=O)O)CCCCC1 [gabapentin] | 120% | 118% | 100% | 110% | 94.4% |  |  |  |  |  | 96% | 93.6% | 89.3% | 94.3% | 92.5% | > 10 µM |  | > 10 µM | 0 |  | 0 |  |  |  |  |  | 102% | 97.6% | 94.2% | 89.3% | 108% |  | > 10 µM |  | 0
9 | CCCCC/C=C\C/C=C\C/C=C\CCCCC(=O)O [gamma-linolenic-acid] |  |  |  |  |  | 106% | 106% | 98.9% | 103% | 103% | 98.2% | 103% | 97.2% | 103% | 100% |  | > 10 µM | > 10 µM |  | 0 | 0 | 97.9% | 103% | 102% | 116% | 94% | 107% | 115% | 94.8% | 99.2% | 107% | > 10 µM | > 10 µM | 0 | 0
10 | Nc1ccn([C@@H]2O[C@H](CO)[C@@H](O)C2(F)F)c(=O)n1 [gemcitabine] | 97.5% | 106% | 86.5% | 63.9% | 40.8% | 97% | 105% | 72.9% | 67.8% | 74.1% | 102% | 102% | 62.3% | 59.4% | 61.4% | 0.529 µM |  |  | 8.2 | 8.6 | 11.9 | 100% | 89% | 72.5% | 66.2% | 72% | 99.5% | 71.2% | 38.3% | 38.9% | 40.3% |  | 0.0105 µM | 9.9 | 23.1
11 | CC(C)C(N)=O [isobutyramide] |  |  |  |  |  | 102% | 97.6% | 101% | 98.8% | 104% | 105% | 106% | 96.2% | 98% | 105% |  | > 10 µM | > 10 µM |  | 0 | 0 | 95.1% | 95.6% | 97.9% | 90.2% | 98.2% | 115% | 99.1% | 90.3% | 101% | 96.8% | > 10 µM | > 10 µM | 0 | 0
12 | O=c1cc(-c2ccc(O)c(O)c2)oc2cc(O)cc(O)c12 [luteolin] | 105% | 123% | 107% | 106% | 70.9% | 99.9% | 105% | 99.9% | 105% | 79.4% | 99.5% | 105% | 94.7% | 101% | 95.3% |  | > 10 µM | > 10 µM | 0.9 | 0.4 | 0 | 92.8% | 98.1% | 95.9% | 94.5% | 79.3% | 111% | 99.4% | 117% | 97.5% | 90.8% | > 10 µM | > 10 µM | 1.1 | 0
13 | CC(=O)c1c(C)c2cnc(Nc3ccc(N4CCNCC4)cn3)nc2n(C2CCCC2)c1=O [palbociclib] | 101% | 90.6% | 98.4% | 85.8% | 92.8% | 104% | 94.8% | 98.8% | 92.3% | 57.3% | 97.9% | 101% | 96.4% | 77.3% | 26.9% | > 10 µM |  | 1.4 µM | 0 | 3.4 | 7.2 | 97.1% | 90.6% | 95.6% | 86.2% | 50.4% | 92.5% | 88.5% | 80.7% | 65.9% | 29.4% |  | 0.525 µM | 4.5 | 9.7
14 | CC1(C)CCC(C)(C)c2cc(Cn3cccn3)c(/C=C/c3ccc(C(=O)O)cc3)cc21 [palovarotene] |  |  |  |  |  | 105% | 99.6% | 102% | 94% | 94.8% | 100% | 104% | 100% | 106% | 98.3% |  | > 10 µM | > 10 µM |  | 0 | 0 | 107% | 93.7% | 94.8% | 96% | 92.9% | 95.4% | 99.7% | 103% | 113% | 99.4% | > 10 µM | > 10 µM | 0 | 0
15 | COc1cc(NS(=O)(=O)c2ccc(N)cc2)ncn1 [sulfamonomethoxine] |  |  |  |  |  | 101% | 99.7% | 101% | 102% | 100% | 106% | 106% | 106% | 104% | 97% |  | > 10 µM | > 10 µM |  | 0 | 0 | 92.6% | 102% | 95.4% | 98.4% | 98.7% | 108% | 104% | 115% | 107% | 90.9% | > 10 µM | > 10 µM | 0 | 0
16 | Cn1nc(-c2cccc(F)c2)n(C)c1=S [suritozole] |  |  |  |  |  | 98.9% | 101% | 99.7% | 103% | 96% | 102% | 101% | 99.4% | 94.5% | 98.4% |  | > 10 µM | > 10 µM |  | 0 | 0 | 93.6% | 97.5% | 102% | 96% | 90.1% | 108% | 99.4% | 98.2% | 106% | 97% | > 10 µM | > 10 µM | 0 | 0
17 | CN1CCN(CC/C=C2/c3ccccc3Sc3ccc(S(=O)(=O)N(C)C)cc32)CC1 [thiothixene] | 96.4% | 102% | 119% | 104% | 77.6% | 95.7% | 97% | 95.6% | 99.4% | 84.5% | 99.5% | 108% | 97.2% | 91.8% | 88.1% | > 10 µM | > 10 µM | > 10 µM | 0.6 | 0.3 | 0.2 | 107% | 104% | 103% | 97.5% | 71.4% | 94.2% | 102% | 104% | 87.6% | 73.3% |  |  | 1.6 | 2.6
